In patent US4668397A, “Novel cyclic octapeptide, method for production of said octapeptide, and ion extracting/separating agent using said octapeptide as principal component” (Agency of Industrial Science & Technology, priority 1984, dated 1987):
Non-standard residues stand in square brackets, D forms with d. Residues, ends and D or L forms follow the SMILES beside them. *: point of attachment. Orn = NCCC[C@H](N)C(=O)O; Cbz = O=C(OCc1ccccc1)*; Boc = CC(C)(C)OC(=O)*; OBn = c1ccc(CO*)cc1; Sar = CNCC(=O)O

Legend:
[1] = Ion transfer through chloroform phase (liquid membrane) between two water phases in a U-shaped tube; details: for Amount of ions transferred: Ca^2+, 200 μM in chloroform phase, pH 7.5, 10 hours; for transferring ability for calcium ion: from Table 2
Experimental: (§1) In a U-shaped tube 15 mm in inside diameter, two water phases (a), (b) (each 10 ml) were separated by an intervening chloroform phase (15 ml). In the water phase (a), a chloride of potassium ions and calcium ions (10 mM), picric acid (25 mM), and good buffer HEPES (10 mM) were dissolved and adjusted to pH 7.5 with lithium hydroxide. In the chloroform phase, the compound of this invention was dissolved in a concentration of 200 μM. The two water phases (a), (b) were stirred with a mechanical stirrer and the chloroform phase was stirred with a magnetic stirrer. After 10 hours of stirring, the amount of potassium ions or calcium ions which had been transferred from the water phase (a) through the chloroform phase into the water phase (b) was determined based on the absorption of picrate anion. For comparison, the procedure described above was repeated by using a naturally occurring calcium-ion ionophore A 23187, the cyclic tetrapeptide, i.e. cyclo(glycyl-ε-benzyloxycarbonyl-L-lysyl-sarcosyl-L-prolyl) (D-1), the linear octapeptide, i.e. tertiary butyloxycarbonylglycyl-ε-benzyloxycarbonyl-L-lysyl-sarcosyl-L-propyl-glycyl-ε-benzyloxycarbonyl-L-lysyl-sarcosyl-L-proline methyl ester (E-1), and using no substance dissolved in the chloroform phase.

[2] = Ion transfer through chloroform phase between two water phases in a U-shaped tube; details: for Amount of ions transferred: K, 200 μM in chloroform phase, pH 7.5, 10 hours; for transferring ability for potassium ion: from Table 2
Experimental: as §1

[3] = Extraction equilibrium constant, chloroform / aqueous metal ion chloride and picric acid, absorbance of picrate anion; details: chloroform/water, pH 7.4, average of five concentrations
Experimental: The compound (C-1) of this invention obtained in Example 1 was dissolved in concentrations of […] in chloroform. Then 5-ml portions of each of the five solutions so prepared were mixed one each with 5-ml aqueous solutions (pH 7.4) of metallic ion chloride (10 mM), picric acid (25 mM), and good buffer HEPES (10 mM) and shaken for 30 minutes. The shaken mixtures were left stading for one hour. Then, based on the absorbance of picrate anion in the chloroform phase, the extraction equilibrium constants of the compound (C-1) of this invention for the various ions were determined. The results so obtained were compared with those of the comparative cyclic tetrapeptide, i.e. cyclo(glycyl-ε-benzyloxycarbonyl-L-lysyl-sarcosyl-L-prolyl) (D-1), and the linear octapeptide, i.e. tertiary butyloxycarbonylglycyl-ε-benzyloxycarbonyl-L-lysyl-sarcosyl-L-prolylglycyl-ε-benzyloxycarbonyl-[…]-L-proline methyl ester (E-1).
The results expressed as logarithms of the average values obtained by using the five chloroform solutions of varying concentration are shown in Table 1.

[4] = Solution extraction and recovery of calcium ion; details: 1 g compound in 100 ml chloroform; sample pH 6.9; back-extraction with 2M ammonium chloride and 2M hydrochloric acid
Experimental: (§2) The amount 100 ml of chloroform solution having dissolved therein 1 g of the compound (C-1) of this invention obtained in Example 1 and 100 ml of a sample solution containing 1 g of magnesium picrate and 100 mg of […] (adjusted to pH 6.9 with acetic acid and sodium acetate) were thoroughly shaken and then left standing for 30 minutes. From the resultant mixture, the chloroform phase was collected. The chloroform phase was washed with 100 ml of an aqueous solution containing 0.01M of lithium picrate (adjusted to pH 6.9 with acetic acid and sodium acetate), followed by collection of chloroform phase. This washing operation was repeated three times to collect the chloroform phase. This chloroform phase was thoroughly shaken with 100 ml of an aqueous solution containing 2M of ammonium chloride and 2M of hydrochloric acid. The shaken mixture was left standing at rest for 30 minutes, followed by collection of the aqueous phase. The aqueous phase was tested for recovery of calcium ion. […] At that time, the concentration of magnesium was 10^-3 times the initial concentration. Thus, by the method of solution extraction using the compound of this invention, calcium ions could be efficiently separated from a large amount of magnesium ions.

[5] = Solution extraction, separation from magnesium; details: after extraction and recovery of calcium ion; sample with 1 g magnesium picrate
Experimental: as §2

CNc1ccc2oc(C[C@H]3O[C@@]4(CC[C@H]3C)O[C@H]([C@H](C)C(=O)c3ccc[nH]3)[C@H](C)C[C@H]4C)nc2c1C(=O)O [Compound A23187]
Amount of ions transferred [1]: 4.7 μ · mol | Amount of ions transferred [2]: 0.1 μ · mol

CN1CC(=O)N2CCC[C@H]2C(=O)NCC(=O)N[C@@H](CCCCNC(=O)OCc2ccccc2)C(=O)N(C)CC(=O)N2CCC[C@H]2C(=O)NCC(=O)N[C@@H](CCCCNC(=O)OCc2ccccc2)C1=O [Compound C-1, cyclo(glycyl-ε-benzyloxycarbonyl-L-lysyl-sarcosyl-L-prolyl)2] (cyclo(GK(Cbz)[Sar]PGK(Cbz)[Sar]P))
Amount of ions transferred [1]: 5.4 μ · mol | Logarithm of ion extraction equilibrium constant ([3]; Ba^2+): 6.0 | Logarithm of ion extraction equilibrium constant ([3]; Ca^2+): 5.6 | Logarithm of ion extraction equilibrium constant ([3]; K^+): 2.6 | Logarithm of ion extraction equilibrium constant ([3]; Mg^2+): 3.4 | Logarithm of ion extraction equilibrium constant ([3]; Na^+): 2.3 | Logarithm of ion extraction equilibrium constant ([3]; Rb^+): 2.6 | Amount of ions transferred [2]: 0.5 μ · mol | recovery ratio of calcium ion [4]: 95% | concentration of magnesium relative to the initial concentration [5]: 10^-3 times the initial concentration

COC(=O)[C@@H]1CCCN1C(=O)CN(C)C(=O)[C@H](CCCCNC(=O)OCc1ccccc1)NC(=O)CNC(=O)[C@@H]1CCCN1C(=O)CN(C)C(=O)[C@H](CCCCNC(=O)OCc1ccccc1)NC(=O)CNC(=O)OC(C)(C)C [Compound E-1, tertiary butyloxycarbonylglycyl-ε-benzyloxycarbonyl-L-lysyl-sarcosyl-L-propyl-glycyl-ε-benzyloxycarbonyl-L-lysyl-sarcosyl-L-proline methyl ester] (Boc-GK(Cbz)[Sar]PGK(Cbz)[Sar]P-OMe)
Amount of ions transferred [1]: 0.3 μ · mol | transferring ability for calcium ion [1]: virtually no transferring ability | Logarithm of ion extraction equilibrium constant ([3]; Ba^2+): 1.3 | Logarithm of ion extraction equilibrium constant ([3]; Ca^2+): 1.1 | Logarithm of ion extraction equilibrium constant ([3]; K^+): 0.9 | Logarithm of ion extraction equilibrium constant ([3]; Mg^2+): 0.9 | Logarithm of ion extraction equilibrium constant ([3]; Na^+): 0.9 | Logarithm of ion extraction equilibrium constant ([3]; Rb^+): 0.9 | Amount of ions transferred [2]: 0.2 μ · mol | transferring ability for potassium ion [2]: virtually no transferring ability

CN1CC(=O)N2CCC[C@H]2C(=O)NCC(=O)N[C@@H](CCCNC(=O)OCc2ccccc2)C(=O)N(C)CC(=O)N2CCC[C@H]2C(=O)NCC(=O)N[C@@H](CCCNC(=O)OCc2ccccc2)C1=O [Compound C-2, cyclo(glycyl-δ-benzyloxycarbonyl-L-ornithyl-sarcosyl-L-prolyl)2] (cyclo(G[Orn](Cbz)[Sar]PG[Orn](Cbz)[Sar]P))
Amount of ions transferred [1]: 5.1 μ · mol | Amount of ions transferred [2]: 0.4 μ · mol

CN1CC(=O)N2CCC[C@H]2C(=O)NCC(=O)N[C@@H](CCCCNC(=O)OCc2ccccc2)C1=O [Compound D-1, cyclo(glycyl-ε-benzyloxycarbonyl-L-lysyl-sarcosyl-L-prolyl)] (cyclo(GK(Cbz)[Sar]P))
Amount of ions transferred [1]: 0.4 μ · mol | transferring ability for calcium ion [1]: virtually no transferring ability | Logarithm of ion extraction equilibrium constant ([3]; Ba^2+): 1.9 | Logarithm of ion extraction equilibrium constant ([3]; Ca^2+): 1.7 | Logarithm of ion extraction equilibrium constant ([3]; K^+): 1.2 | Logarithm of ion extraction equilibrium constant ([3]; Mg^2+): 1.2 | Logarithm of ion extraction equilibrium constant ([3]; Na^+): 1.1 | Logarithm of ion extraction equilibrium constant ([3]; Rb^+): 1.2 | Amount of ions transferred [2]: 0.1 μ · mol | transferring ability for potassium ion [2]: virtually no transferring ability

CN1CC(=O)N2CCC[C@H]2C(=O)NCC(=O)N[C@@H](CC(=O)OCc2ccccc2)C(=O)N(C)CC(=O)N2CCC[C@H]2C(=O)NCC(=O)N[C@@H](CC(=O)OCc2ccccc2)C1=O [Compound C-4, cyclo(glycyl-β-benzyl-L-aspartylsarcosyl-L-prolyl)2] (cyclo(D(OBn)[Sar]PGD(OBn)[Sar]PG))
Amount of ions transferred [1]: 4.8 μ · mol | Amount of ions transferred [2]: 0.3 μ · mol

CN1CC(=O)N2CCC[C@H]2C(=O)NCC(=O)N[C@@H](CCC(=O)OCc2ccccc2)C(=O)N(C)CC(=O)N2CCC[C@H]2C(=O)NCC(=O)N[C@@H](CCC(=O)OCc2ccccc2)C1=O [Compound C-3, cyclo(glycyl-γ-benzyl-L-glutamylsarcosyl-L-prolyl)2] (cyclo(E(OBn)[Sar]PGE(OBn)[Sar]PG))
Amount of ions transferred [1]: 4.9 μ · mol | Amount of ions transferred [2]: 0.3 μ · mol
